Measurements from ChEMBL document CHEMBL2401728, “An unexpected Dimroth rearrangement leading to annelated thieno[3,2-d][1,2,3]triazolo[1,5-a]pyrimidines with potent antitumor activity” (Eur J Med Chem, 2013).

Assays:
Assay type in all cases: functional
[1] = tested on: HOP-92; experiment: Cytotoxicity against human HOP92 cells after 48 hrs by SRB assay; conditions: HOP-92, 48 h
[2] = tested on: SK-MEL-5; experiment: Cytotoxicity against human SK-MEL-5 cells assessed as cellular growth at 0.01 uM after 48 hrs by SRB assay relative to control
[3] = tested on: SNB-75; experiment: Cytotoxicity against human SNB75 cells assessed as cellular growth at 0.01 uM after 48 hrs by SRB assay relative to control
[4] = tested on: NCI-H522; experiment: Cytotoxicity against human NCI-H522 cells assessed as cellular growth at 0.01 uM after 48 hrs by SRB assay relative to control
[5] = tested on: NCI-H226; experiment: Cytotoxicity against human NCI-H226 cells after 48 hrs by SRB assay; conditions: NCI-H226, 48 h
[6] = tested on: M14; experiment: Cytotoxicity against human M14 cells assessed as cellular growth at 100 uM after 48 hrs by SRB assay relative to control
[7] = Cytotoxicity against human EKVX cells assessed as cellular growth at 0.01 uM after 48 hrs by SRB assay relative to control
[8] = tested on: Malme-3M; experiment: Cytotoxicity against human MALME-3M cells assessed as cellular growth at 1 uM after 48 hrs by SRB assay relative to control
[9] = tested on: 786-0; experiment: Cytotoxicity against human 786-0 cells assessed as cellular growth at 10 uM after 48 hrs by SRB assay relative to control
[10] = tested on: BT-549; experiment: Cytotoxicity against human BT549 cells after 48 hrs by SRB assay; conditions: BT-549, 48 h
[11] = tested on: DU-145; experiment: Cytotoxicity against human DU145 cells assessed as cellular growth at 0.1 uM after 48 hrs by SRB assay relative to control
[12] = tested on: SF-295; experiment: Cytotoxicity against human SF295 cells assessed as cellular growth at 1 uM after 48 hrs by SRB assay relative to control
[13] = tested on: TK-10; experiment: Cytotoxicity against human TK10 cells assessed as cellular growth at 0.1 uM after 48 hrs by SRB assay relative to control
[14] = tested on: SR; experiment: Cytotoxicity against human SR cells assessed as cellular growth at 1 uM after 48 hrs by SRB assay relative to control
[15] = tested on: OVCAR-8; experiment: Cytotoxicity against human OVCAR8 cells after 48 hrs by SRB assay; conditions: OVCAR-8, 48 h
[16] = tested on: SF-295; experiment: Cytotoxicity against human SF295 cells assessed as cellular growth at 0.1 uM after 48 hrs by SRB assay relative to control
[17] = Cytotoxicity against human NCI-ADR-RES cells after 48 hrs by SRB assay
[18] = tested on: KM12; experiment: Cytotoxicity against human KM12 cells after 48 hrs by SRB assay; conditions: KM12, 48 h
[19] = tested on: OVCAR-5; experiment: Cytotoxicity against human OVCAR5 cells assessed as cellular growth at 0.01 uM after 48 hrs by SRB assay relative to control
[20] = tested on: NCI-H322M; experiment: Cytotoxicity against human NCI-H322M cells assessed as cellular growth at 0.1 uM after 48 hrs by SRB assay relative to control
[21] = tested on: HCT-116; experiment: Cytotoxicity against human HCT116 cells after 48 hrs by SRB assay; conditions: HCT-116, 48 h
[22] = tested on: 786-0; experiment: Cytotoxicity against human 786-0 cells assessed as cellular growth at 0.1 uM after 48 hrs by SRB assay relative to control
[23] = tested on: SF-539; experiment: Cytotoxicity against human SF539 cells assessed as cellular growth at 100 uM after 48 hrs by SRB assay relative to control
[24] = tested on: Hs-578T; experiment: Cytotoxicity against human Hs578T cells assessed as cellular growth at 0.1 uM after 48 hrs by SRB assay relative to control
[25] = tested on: Malme-3M; experiment: Cytotoxicity against human MALME-3M cells after 48 hrs by SRB assay
[26] = tested on: NCI-H460; experiment: Cytotoxicity against human NCI-H460 cells after 48 hrs by SRB assay; conditions: NCI-H460, 48 h
[27] = tested on: COLO 205; experiment: Cytotoxicity against human COLO205 cells assessed as cellular growth at 0.1 uM after 48 hrs by SRB assay relative to control
[28] = tested on: NCI-H460; experiment: Cytotoxicity against human NCI-H460 cells assessed as cellular growth at 0.1 uM after 48 hrs by SRB assay relative to control
[29] = tested on: OVCAR-5; experiment: Cytotoxicity against human OVCAR5 cells after 48 hrs by SRB assay; conditions: OVCAR-5, 48 h
[30] = tested on: HOP-62; experiment: Cytotoxicity against human HOP62 cells assessed as cellular growth at 10 uM after 48 hrs by SRB assay relative to control
[31] = Cytotoxicity against human NCI-ADR-RES cells assessed as cellular growth at 0.01 uM after 48 hrs by SRB assay relative to control
[32] = tested on: MCF7; experiment: Cytotoxicity against human MCF7 cells assessed as cellular growth at 0.01 uM after 48 hrs by SRB assay relative to control
[33] = tested on: Hs-578T; experiment: Cytotoxicity against human Hs578T cells assessed as cellular growth at 1 uM after 48 hrs by SRB assay relative to control
[34] = tested on: HCT-15; experiment: Cytotoxicity against human HCT15 cells assessed as cellular growth at 100 uM after 48 hrs by SRB assay relative to control
[35] = read-out: LC50 (the source's name)
[36] = read-out: pLC50 (the source's name) (converted)

O=C(CCCn1c2c(sc3ccccc32)c(=O)n2nnc(-c3ccccc3)c12)NCCc1c[nH]cn1
GI50 ([1]; read-out: GI50): 4.06 µM | CC50 [1, 35]: > 100 µM | TGI ([1]; read-out: TGI): 20.5 µM | GI50 ([1]; read-out: pGI50 (converted)): 4.07 µM | CC50 [1, 36]: > 100 µM | TGI ([1]; read-out: pTGI (converted)): 20.4 µM | Activity [2]: 101% | Activity [3]: 103% | Activity [4]: 65% | GI50 ([5]; read-out: GI50): 2.75 µM | CC50 [5, 35]: 41.2 µM | TGI ([5]; read-out: TGI): 7.49 µM | GI50 ([5]; read-out: pGI50 (converted)): 2.75 µM | CC50 [5, 36]: 40.7 µM | TGI ([5]; read-out: pTGI (converted)): 7.41 µM | Activity [6]: -38% | Activity [7]: 104% | Activity [8]: 81% | Activity [9]: -89% | GI50 ([10]; read-out: GI50): 3.32 µM | LC50 (concentration killing 50% of cells) ([10]; read-out: LC50): 51.5 µM | TGI ([10]; read-out: TGI): 11.4 µM | GI50 ([10]; read-out: pGI50 (converted)): 3.31 µM | LC50 (concentration killing 50% of cells) ([10]; read-out: pLC50 (converted)): 51.3 µM | TGI ([10]; read-out: pTGI (converted)): 11.5 µM | Activity [11]: 87% | Activity [12]: 39% | Activity [13]: 93% | Activity [14]: -18% | GI50 ([15]; read-out: GI50): < 0.01 µM | CC50 [15, 35]: > 100 µM | TGI ([15]; read-out: TGI): 2.99 µM | GI50 ([15]; read-out: pGI50 (converted)): 0.01 µM | CC50 ([15]; read-out: pLC50 (converted)): > 100 µM | TGI ([15]; read-out: pTGI (converted)): 3.02 µM | Activity [16]: 70% | GI50 ([17]; read-out: GI50): 1.07 µM | CC50 [17, 35]: > 100 µM | TGI ([17]; read-out: TGI): > 100 µM | GI50 ([17]; read-out: pGI50 (converted)): 1.07 µM | GI50 ([18]; read-out: GI50): 0.336 µM | CC50 [18, 35]: 4.88 µM | TGI ([18]; read-out: TGI): 2.01 µM | GI50 ([18]; read-out: pGI50 (converted)): 0.339 µM | CC50 [18, 36]: 4.9 µM | TGI ([18]; read-out: pTGI (converted)): 2 µM | Activity [19]: 94% | Activity [20]: 78% | GI50 ([21]; read-out: GI50): < 0.01 µM | GI50 ([21]; read-out: pGI50 (converted)): 0.01 µM | Activity [22]: 62% | Activity [23]: -99% | Activity [24]: 91% | GI50 ([25]; read-out: GI50): 1.58 µM | CC50 [25, 35]: 6.8 µM | TGI ([25]; read-out: TGI): 3.28 µM | GI50 ([25]; read-out: pGI50 (converted)): 1.58 µM | CC50 [25, 36]: 6.76 µM | TGI ([25]; read-out: pTGI (converted)): 3.31 µM | GI50 ([26]; read-out: GI50): 1.59 µM | TGI ([26]; read-out: TGI): 3.95 µM | GI50 ([26]; read-out: pGI50 (converted)): 1.58 µM | TGI ([26]; read-out: pTGI (converted)): 3.98 µM | Activity [27]: 60% | Activity [28]: 114% | GI50 ([29]; read-out: GI50): 0.0565 µM | CC50 [29, 35]: 4.06 µM | TGI ([29]; read-out: TGI): 1.36 µM | GI50 ([29]; read-out: pGI50 (converted)): 0.0562 µM | CC50 [29, 36]: 4.07 µM | TGI ([29]; read-out: pTGI (converted)): 1.35 µM | Activity [30]: -79% | Activity [31]: 101% | Activity [32]: 98% | Activity [33]: 70% | Activity [34]: -100%
